According to patent US20080293691A1, “Treatment Method” (SMITHKLINE BEECHAM CORPORATION, priority 2005, published 2008):

Tests used:
[1] = system: choroidal neovascularization (CNV); assay: Prevention model for CNV (treatment begun before laser-induced retinal injury in mice); format: in vivo; conditions: oral twice daily from one day before retinal burning, 100 mg/kg Example 1, 45 mg/kg Example 3, or both, read fourteen days after burning, FIG. 2
Procedure: See the Examples section for additional information.
(§1) Mice were anesthetized and the pupils were dilated. Burns of krypton laser photocoagulation were delivered to the retina. Administration of the compound described in Example 1 was initiated seven days after the laser-induced injury. Oral doses of either the vehicle alone or vehicle containing the compound of formula (I) (designated as VEGF R in FIG. 1) at a dose or 4 mg/kg, 20 mg/kg, or 100 mg/kg were administered twice daily for seven days. After seven day of treatment, the mice were perfused with fluorescein-labeled dextran, and the area of choroidal neovascularization was quantitated.
In this experiment, the compound described in Example 1 (Designated as VEGF R in FIG. 2), Example 3 (designated as vitronectin in FIG. 2), or a combination of the compounds described in Example 1 and Example 3 (designated as “both” in FIG. 2) were administered to each mouse beginning one day before retinal burning was performed according to the methods described in Example 4. The compounds were administered orally twice daily at a dosage of 100 mg/kg for the compound of Example 1 or 45 mg/kg for the compound of Example 3. Fourteen days after the retinal burning, the CNV area was quantitated as described above.

[2] = system: choroidal neovascularization (CNV); assay: Regression model for CNV (laser-induced choroidal neovascularization in mice); format: in vivo; conditions: oral 4, 20 or 100 mg/kg twice daily for seven days, started seven days after laser-induced injury, compared with vehicle/untreated
Description: In this regression model, CNV was induced in mice by laser burns on the posterior pole of the retina. Seven days after the laser-induced injury, the mice began a regime in which they were given either vehicle alone or 5-[[4-[(2,3-Dimethyl-2H-indazol-6-yl)methylamino]-2-pyrimidinyl]amino]-2-methylbenzenesulfonamide at the indicated doses. Seven days after this regime was initiated, the size of the CNV lesions was quantitated. See the Examples section for additional information.
as §1

Compound: Cc1ccc(Nc2nccc(N(C)c3ccc4c(C)n(C)nc4c3)n2)cc1S(N)(=O)=O [pazopanib, 5-({4-[(2,3-dimethyl-2H-indazol-6-yl)(methyl)amino]pyrimidin-2-yl}amino)-2-methylbenzenesulfonamide]
- CNV area (size of choroidal neovascular lesions) [1]: a decrease in size of the resulting choroidal neovascular lesions
- area of choroidal neovascularization (size of CNV lesions) ([2]; FIG. 1): a decrease in the size of the resulting choroidal neovascular lesions
- area of choroidal neovascularization (size of CNV lesions) ([2]; FIG. 1, listed as Pazopanib): decreased the CNV area in a dose-specific manner

Compound: O=C(O)C[C@@H]1Cc2ccc(OCCCNc3ccccn3)cc2CN(CC(F)(F)F)C1=O [Example 3, (S)-3-oxo-8-[3-(pyridin-2-ylamino)-1-propyloxy]-2-(2,2,2-trifluoroethyl)-2,3,4,5-tetrahydro-1H-2-benzazepine-4-acetic acid]
- CNV area (size of choroidal neovascular lesions) [1]: a decrease in size of the resulting choroidal neovascular lesions
